Test results reported in ChEMBL document CHEMBL5727111, “Pyrrolidinyl urea, pyrrolidinyl thiourea and pyrrolidinyl guanidine compounds as TrkA kinase inhibitors” (2019).

These molecules were tested against High affinity nerve growth factor receptor (Homo sapiens, UniProt P04629) (assay: TrkA Omnia Assay: Trk enzymatic selectivity was assessed using Omnia Kinase Assay reagents from Invitrogen Corp. Enzyme (TrkA from Invitrogen Corp.) and test compound (various concentrations) were incubated for 10 minutes at ambient temperature in a 384-well white polypropylene plate (Nunc catalog#267462). Omnia Tyr Peptide #4, as well as ATP, were then added to the plate. Final concentrations were as follows: 20 nM enzyme, 500 μM of ATP, 10 μM peptide substrate. The assay buffer consisted of 25 mM MOPS pH 7.5, 0.005% (v/v) Triton X-100 and 5 mM MgCl2. The production of phosphorylated peptide was monitored continuously for 70 minutes using a Molecular Devices FlexStation II384 microplate reader (excitation=360 nm; emission=485 nm). Initial rates were calculated from the progress curves. IC50 values were calculated from these rates using either a 4 or 5-parameter logistic curve fit.).
High affinity nerve growth factor receptor, sequence (P04629 whole entry): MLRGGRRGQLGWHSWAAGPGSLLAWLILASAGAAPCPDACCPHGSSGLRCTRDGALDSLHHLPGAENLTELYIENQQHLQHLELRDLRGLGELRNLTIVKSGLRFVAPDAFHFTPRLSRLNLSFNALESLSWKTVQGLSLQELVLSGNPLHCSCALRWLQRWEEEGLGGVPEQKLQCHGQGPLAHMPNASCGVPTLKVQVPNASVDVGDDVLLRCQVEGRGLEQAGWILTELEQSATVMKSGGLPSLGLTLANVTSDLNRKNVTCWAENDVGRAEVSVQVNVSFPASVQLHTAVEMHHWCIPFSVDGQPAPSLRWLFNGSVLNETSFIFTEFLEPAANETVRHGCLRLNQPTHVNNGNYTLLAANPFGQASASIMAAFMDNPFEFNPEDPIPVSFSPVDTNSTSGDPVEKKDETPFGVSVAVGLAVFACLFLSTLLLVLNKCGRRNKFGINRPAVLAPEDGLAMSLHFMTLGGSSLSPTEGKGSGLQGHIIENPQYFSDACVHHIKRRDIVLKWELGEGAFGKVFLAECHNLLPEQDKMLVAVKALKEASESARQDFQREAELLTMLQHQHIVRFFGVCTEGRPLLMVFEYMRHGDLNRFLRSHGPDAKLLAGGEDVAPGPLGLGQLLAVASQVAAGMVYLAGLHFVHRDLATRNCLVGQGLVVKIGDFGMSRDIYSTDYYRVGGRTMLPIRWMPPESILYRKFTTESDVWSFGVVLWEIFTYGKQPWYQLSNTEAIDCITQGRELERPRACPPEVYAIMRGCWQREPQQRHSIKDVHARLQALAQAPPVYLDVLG

Structure (SMILES) | IC50 [nM]
COCCN1C[C@@H](NC(=O)Nc2c(C)c(-c3cnn(C)c3)nn2-c2ccc(F)c(Cl)c2)[C@H](c2ccc(F)c(F)c2)C1 | < 100
COCCN1C[C@@H](NC(=O)Nc2c(C)c(-c3cnn(C)c3)nn2-c2ccccc2F)[C@H](c2ccc(F)cc2)C1 | < 100
COCCN1C[C@@H](NC(=O)Nc2c(C)c(-c3cnn(C)c3)nn2-c2cccc(Cl)c2F)[C@H](c2ccc(F)c(F)c2)C1 | < 100
COCCN1C[C@@H](NC(=O)Nc2c(Br)c(C)nn2-c2ccccc2)[C@H](c2ccc(F)cn2)C1 (relative stereo) | < 100
COc1ncccc1N1C[C@@H](NC(=O)Nc2c(C)c(-c3cnn(C)c3)nn2-c2ccccc2)[C@H](c2ccccc2)C1 | < 100
COCCN1C[C@@H](NC(=O)Nc2cc(-c3ccc(C(=O)N(C)C)cc3)nn2C)[C@H](c2ccc(F)c(F)c2)C1 | < 100
COCCN1C[C@@H](NC(=O)Nc2c(C)c(-c3cnn(C)c3)nn2-c2ccccc2)[C@H](c2ccc(F)cn2)C1 (relative stereo) | < 100
Cn1cc(-c2nn(-c3ccccc3)c(NC(=O)N[C@H]3CN(CC(F)(F)F)C[C@@H]3c3ccccc3)c2Cl)cn1 | < 100
COCCN1C[C@@H](NC(=O)Nc2c(Cl)c(-c3cnn(C)c3)nn2-c2ccccc2)[C@H](c2cncc(F)c2)C1 | < 100
COCCN1C[C@@H](NC(=O)Nc2c(C)c(-c3cnn(C)c3)nn2-c2ccccc2)[C@H](c2csnn2)C1 (relative stereo) | < 100
COCCN1C[C@@H](NC(=O)Nc2c(SC)c(C)nn2-c2ccccc2)[C@H](c2ccc(F)c(F)c2)C1 | < 100
COCCN1C[C@@H](NC(=O)Nc2c(Br)c(C)nn2-c2ccccc2)[C@H](c2cc(F)cc(F)c2)C1 | < 100
COCCN1C[C@@H](NC(=O)Nc2c(C)c(-c3cnn(C)c3)nn2-c2ccccc2)[C@H](c2ccccc2)C1 | < 100
COCCN1C[C@@H](NC(=O)Nc2c(C)c(-c3cnn(C)c3)nn2-c2ccccc2)[C@H](c2cccc(C#N)c2)C1 | < 100
CCOc1nn(-c2ccccc2)c(NC(=O)N[C@@H]2CN(CCOC)C[C@H]2c2cncc(Cl)c2)c1C (relative stereo) | < 100
COCCN1C[C@@H](NC(=O)Nc2c(C)c(-c3cnn(C)c3)nn2-c2cccc(Cl)c2)[C@H](c2ccc(F)c(F)c2)C1 | < 100
COCCN1C[C@@H](NC(=O)Nc2c(C)c(-c3cnn(C)c3)nn2-c2ccccc2)[C@H](c2ccc(F)c(F)c2)C1 | < 100
Cc1c(-c2ccc(=O)n(C)c2)nn(-c2ccccc2)c1NC(=O)N[C@H]1CN(CC(F)(F)F)C[C@@H]1c1ccccc1 | < 100
O=C(Nc1c2c(nn1-c1ccccc1)CCC2)N[C@@H]1CN(CC(F)F)C[C@H]1c1ccc(F)cc1 (relative stereo) | < 100
COCCN1C[C@@H](NC(=O)Nc2c(C)c(-c3cnn(C)c3)nn2-c2ccccc2)[C@H](c2ccc(C#N)cc2)C1 | < 100
CCOc1nn(-c2ccccc2)c(NC(=O)N[C@H]2CN(CC(F)(F)F)C[C@@H]2c2cccc(F)c2)c1C | < 100
COCCN1C[C@@H](NC(=O)Nc2c(Cl)c(C)nn2-c2ccccc2)[C@H](c2cc(F)cc(F)c2)C1 | < 100
COCCN1C[C@@H](NC(=O)Nc2c(C)c(-c3cnn(C)c3)nn2-c2cccc(F)c2)[C@H](c2ccc(F)cc2)C1 | < 100
